Article PMC9783648, “Comparative Analysis of Aristolochic Acids in Aristolochia Medicinal Herbs and Evaluation of Their Toxicities” (Toxins, 2022)
Like-named read-outs stand apart in the source and are kept apart here.

Columns and labels:
[1] = Cytotoxicity assay, MTT method; assay type: cell-based, Human; settings: human, HepG2, MTT, 72 h incubation, n = 3
Experimental: (§1) The cytotoxicity of the compounds to HepG2 was determined using the MTT method. First, the cells were transferred from the culture dish to a centrifuge tube, and centrifuged for 5 min (at 1000 r/min). After discarding the supernatant, the tumor cells were cultured in a complete medium containing 15% fetal bovine serum at 37 C, 5% CO2, and saturated humidity. When the cells grew logarithmically, they were spread onto plates, and the cell density was adjusted to 8.0 × 10^4 cells/mL before the cell sap was added into a 96-well plate (200 µL per well). The cells grew adherent for 24 h. After 24 h, 2 µL of two standards, two extracts of medicinal herbs were added to each plate well and incubated for 72 h. Adriamycin was used as the positive control, and the blank control contained 2 µL DMSO. After incubation, 20 μL of 5 mg/mL MTT solution was added, and the plates were incubated for 4 h. The supernatant liquid was removed, and the cells were disrupted with 200 µL of DMSO for 10 min. After the blue crystalline substance was fully dissolved, the absorbance value was measured on a microplate reader with the detection wavelength of 562 nm and the reference wavelength of 630 nm. The IC50 value of each compound was calculated.

HepG2 cell line = experiment: Cytotoxicity assay, MTT method; assay type: cell-based, Human
Experimental: as §1

DNA of HepG2 cells [2] = experiment: Comet assay, DNA damage; assay type: cell-based, Human; settings: for damage to the DNA of HepG2 cells / tail length compared with blank control group: AAI 50 μM, AAII 131.5 μM; for tail length compared with blank control group: AMH 10 mg/mL, ADS 93 mg/mL, ADM 3.4 μM, Kruskal–Wallis test
Experimental: Cells in the logarithmic growth phase were inoculated in 6-well plates, and the cell density was adjusted to 2.5 × 10^5 cells /mL, 2 mL per well. After 24 h, the experimental group was combined with AAⅠ (50 μM), AAII (131.5 μM), extracts of the AMH (10 mg/mL) and ADS (93 mg/mL), the positive control group was combined with ADM (3.4 μM), and the blank control group were added with the same volume of cell culture solution. After 48 h of culture, the cells were collected. DNA damage was detected according to the operating instructions of comet assay kit. The experiment was repeated 3 times, and 50 cells were selected at each dose in each experiment and analyzed by Comet Assay software (CASP, http://casplab.com/, accessed on 5 October 2022). The mean values of tail DNA percentage, tail length, and tail moment of three experiments were used to express DNA damage. Results one-way ANOVA was used to test the data between groups, and the difference was statistically significant when p < 0.01. Data and statistical results are generated by GraphPad Prism 7 software.

DNA of HepG2 cells [3] = experiment: Comet assay, DNA damage; assay type: cell-based, Human; settings: HepG2, 48 h; AAI 50 μM, AAII 131.5 μM, AMH 10 mg/mL, ADS 93 mg/mL, ADM 3.4 μM; Kruskal–Wallis test
NCI-H187 cell line = system: NCI-H187 cell line; design: method as in PMID 25865074, PMID 29098873; settings: cited from earlier work
A549 = system: A549; design: method as in PMID 25865074, PMID 29098873; settings: cited from earlier work
MCF7 = system: MCF7; design: method as in PMID 25865074, PMID 29098873; settings: cited from earlier work
[4] = means ± SD, read-out: IC50 values of compounds, cytotoxic activity
[5] = HepG2, AAI 50 μM vs AAII 131.5 μM, 48 h
[6] = HepG2, AAI 50 μM vs ADS extract 93 mg/mL, 48 h

O=C(O)c1cc2c(c3c1c([N+](=O)[O-])cc1ccc(O)cc13)OCO2 [AAC, aristolochic acid ΙΙΙ a]
IC50 [1, 4]: 293.5 ± 0.3 µM

COc1cc(O)cc2c1cc([N+](=O)[O-])c1c(C(=O)O)cc3c(c12)OCO3 [AAD, Aristolochic acid IVa]
IC50 ([1]; read-out: IC50 values of compounds, cytotoxic activity (symbol)): > 1000 µM
cytotoxicity against HepG2 cell line (HepG2 cell line): no cytotoxicity

COc1cccc2c1cc([N+](=O)[O-])c1c(C(=O)O)cc3c(c12)OCO3 [AAI, Aristolochic acid I]
IC50 at 72 h [1, 4]: 50.2 ± 0.2 µM
cytotoxicity against HepG2 cell line (HepG2 cell line): moderate cytotoxicity
damage to the DNA of HepG2 cells (DNA of HepG2 cells [2]; HepG2, 48 h): obviously caused damage to the DNA
tail length compared with blank control group (DNA of HepG2 cells [2]; HepG2, 48 h): significantly higher
tail DNA content, increase relative to AAII (DNA of HepG2 cells [2]; [5]): 16 times
tail length, increase relative to AAII (DNA of HepG2 cells [2]; [5]): 12.8 times
tail moment, increase relative to AAII group (DNA of HepG2 cells [2]; [5]): 110 times
tail DNA content, increase relative to ADS (DNA of HepG2 cells [2]; [6]): 4.7 times
tail length, increase relative to ADS (DNA of HepG2 cells [2]; [6]): 6.8 times
tail moment, increase relative to ADS group (DNA of HepG2 cells [2]; [6]): approximately 70 times
damage to cellular DNA, TDNA (DNA of HepG2 cells [2]; HepG2, at 50 μM, 48 h): 40–95%
tail DNA content compared with blank control group (DNA of HepG2 cells [3]): significant differences

O=C(O)c1cc2c(c3c1c([N+](=O)[O-])cc1ccccc13)OCO2 [AAII]
IC50 [1, 4]: 131.4 ± 0.1 µM
damage to cellular DNA, TDNA (DNA of HepG2 cells [2]; HepG2, 48 h): 5–20%
damage to the DNA of HepG2 cells (DNA of HepG2 cells [2]; HepG2, 48 h): no obvious damage
tail DNA content compared with blank control group (DNA of HepG2 cells [3]): no significance

COc1cc2c3c(cc4ccccc4c3c1OC)NC2=O [AL-BII]
IC50 [1, 4]: 0.2 ± 0.1 µM
cytotoxicity against HepG2 cell line (HepG2 cell line): most potent cytotoxicity
cytotoxicity against NCI-H187 cell line (NCI-H187 cell line): selective cytotoxicity
cytotoxicity against A549 (A549): no cytotoxicity
cytotoxicity against MCF7 (MCF7): no cytotoxicity

COc1cc2c3c(cc4ccccc4c3c1O)NC2=O [AL-FI]
IC50 [1, 4]: 417.2 ± 0.2 µM

COc1cccc2c1cc1c3c(cc4c(c32)OCO4)C(=O)N1 [AL-I, aristolactam Ι]
IC50 [1, 4]: 135.7 ± 0.3 µM

COc1cccc2c1C(=O)c1c(O)c3c(c(O)c1C2=O)C[C@@](O)(C(=O)CO)C[C@@H]3O[C@H]1C[C@H](N)[C@H](O)[C@H](C)O1 [Extract of ADM, Adriamycin]
IC50 [1, 4]: 3.1 ± 0.1 µM
tail length compared with blank control group (DNA of HepG2 cells [2]; HepG2, 48 h): significantly higher
tail DNA content compared with blank control group (DNA of HepG2 cells [3]): significant differences
